These results are taken from patent publication US20250230159A1, “FUSED HETEROCYCLIC COMPOUNDS AS MODULATORS OF RAS SIGNALLING” (Shenzhen Ionova Life Science Co., Ltd., priority 2022, published 2025).

In one assay the test system is pERK in Hela cells. Nature of the assay: Phospho-ERK (p-ERK) assay in Hela cells. The class given is cell-based. The following applies: Homo sapiens, Table 1, 1 hour with compound, β-actin normalized. The essentials:
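Cells were treated for 1 h at 37 °C with compound in a 9-point, 3-fold series from 10 μM, then fixed and stained for pERK and β-actin. An In-Cell Western read-out normalized pERK to β-actin and to vehicle wells to give % inhibition and IC50.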

Assay [1] deals with KRAS-G12C/SOS1 interaction (Homo sapiens (Human), UniProt Q07889). Nature of the assay: Protein-Protein Interaction (PPI) assay, SOS1-KRAS binding assay kit (HTRF). The following applies: read-out: PPI Assay IC50.
Chain of KRAS-G12C/SOS1 interaction (Q07889 whole entry, stated change not applied): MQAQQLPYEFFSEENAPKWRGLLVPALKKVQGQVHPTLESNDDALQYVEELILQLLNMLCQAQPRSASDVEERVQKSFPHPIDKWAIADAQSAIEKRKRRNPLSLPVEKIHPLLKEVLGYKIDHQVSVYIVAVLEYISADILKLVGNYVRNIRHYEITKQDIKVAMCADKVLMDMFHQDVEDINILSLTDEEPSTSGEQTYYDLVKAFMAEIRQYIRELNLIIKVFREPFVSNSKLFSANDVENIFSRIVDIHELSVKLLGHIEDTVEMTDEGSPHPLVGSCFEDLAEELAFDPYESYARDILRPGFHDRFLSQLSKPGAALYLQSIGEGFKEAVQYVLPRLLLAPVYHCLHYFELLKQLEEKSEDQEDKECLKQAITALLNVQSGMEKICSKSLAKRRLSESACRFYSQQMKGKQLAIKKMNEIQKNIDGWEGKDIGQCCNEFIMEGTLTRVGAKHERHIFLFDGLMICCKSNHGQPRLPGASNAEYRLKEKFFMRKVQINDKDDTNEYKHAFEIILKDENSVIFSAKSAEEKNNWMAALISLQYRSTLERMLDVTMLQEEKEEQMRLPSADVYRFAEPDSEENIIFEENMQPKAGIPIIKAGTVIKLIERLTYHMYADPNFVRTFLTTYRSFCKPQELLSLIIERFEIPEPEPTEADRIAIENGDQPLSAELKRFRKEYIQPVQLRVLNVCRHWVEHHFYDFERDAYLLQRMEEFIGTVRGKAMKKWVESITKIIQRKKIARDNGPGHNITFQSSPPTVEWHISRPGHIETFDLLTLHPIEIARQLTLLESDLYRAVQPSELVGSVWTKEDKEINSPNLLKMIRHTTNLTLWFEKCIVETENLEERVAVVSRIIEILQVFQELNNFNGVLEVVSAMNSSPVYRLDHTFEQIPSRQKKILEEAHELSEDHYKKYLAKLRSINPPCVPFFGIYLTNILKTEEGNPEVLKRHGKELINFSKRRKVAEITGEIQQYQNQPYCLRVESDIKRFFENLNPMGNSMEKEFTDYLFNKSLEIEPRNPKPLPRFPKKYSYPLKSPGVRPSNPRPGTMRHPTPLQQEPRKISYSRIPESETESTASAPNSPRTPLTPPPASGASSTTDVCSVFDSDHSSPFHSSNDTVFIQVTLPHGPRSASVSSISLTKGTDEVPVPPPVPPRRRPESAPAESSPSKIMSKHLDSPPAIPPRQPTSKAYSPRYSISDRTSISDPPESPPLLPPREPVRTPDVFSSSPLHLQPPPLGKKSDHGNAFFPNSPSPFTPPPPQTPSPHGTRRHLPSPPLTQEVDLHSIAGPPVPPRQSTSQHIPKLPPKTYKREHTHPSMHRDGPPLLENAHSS

For the compound `Cc1nc(N[C@H](C)c2cccc(C(F)F)c2F)c2cc(C3=CCS(=O)(=O)CC3)c3nncn3c2n1` [Example 151, (R)-4-(4-((1-(3-(difluoromethyl)-2-fluorophenyl)ethyl)amino)-2-methyl-[1,2,4]triazolo[4′,3′:1,6]pyrido[2,3-d]pyrimidin-6-yl)-3,6-dihydro-2H-thiopyran 1,1-dioxide], the half-inhibitory concentration (IC50) (commonly the concentration that gives 50% inhibition) with pERK in Hela cells was > 100 nM; in assay [1], < 100 nM.
Take `Cc1nc(N[C@H](C)c2cccc(C(F)F)c2F)c2cc(C3CCS(=O)(=O)CC3)c3nncn3c2n1` [Example 152]: the half-maximal inhibitory concentration (IC50) is > 100 nM with pERK in Hela cells and < 100 nM in assay [1].
For the compound `C[C@@H](Nc1ncnc2c1cc(N1CCOCC1)c1ncnn12)c1cc(N)cc(C(F)(F)F)c1` [Example 153, (R)—N-(1-(3-amino-5-(trifluoromethyl)phenyl)ethyl)-4-morpholino-[1,2,4]triazolo[1′,5′:1,6]pyrido[2,3-d]pyrimidin-6-amine], the IC50 with pERK in Hela cells is > 100 nM; in assay [1], < 100 nM.
Consider `Cc1nc2c(N3CCOCC3)cc3c(N[C@H](C)c4cccc(C(F)F)c4F)ncnc3n2n1` [Example 154], for which the IC50 (with pERK in Hela cells; in assay [1]) was < 100 nM throughout.
Take `Cc1nc2c(N3CCOCC3=O)cc3c(N[C@H](C)c4cccc(C(F)F)c4F)ncnc3n2n1` [Example 155]: the half-inhibitory concentration (IC50) (with pERK in Hela cells; in assay [1]) was < 100 nM each time.
On to `Cc1nc2c(N3CCOC4(CC4)C3=O)cc3c(N[C@H](C)c4cccc(C(F)F)c4F)ncnc3n2n1` [Example 156], for which the IC50 (in the assay on pERK in Hela cells; in assay [1]) was < 100 nM in each case.
On to `Cc1nc2c(N3CC4(CC4)OCC3=O)cc3c(N[C@H](C)c4cccc(C(F)F)c4F)ncnc3n2n1` [Example 157], for which the half-inhibitory concentration (IC50) (in the assay on pERK in Hela cells; in assay [1]) was < 100 nM in each case.
Consider `Cc1nc2c(N3CCOCCC3=O)cc3c(N[C@H](C)c4cccc(C(F)F)c4F)ncnc3n2n1` [Example 158], for which the IC50 (in the assay on pERK in Hela cells; in assay [1]) was < 100 nM each time.
Turning to `C[C@@H](Nc1ncnc2c1cc(N1CCOC[C@@H]1C)c1nncn12)c1cc(N)cc(C(F)(F)F)c1` [Example 159], the figures for the half-maximal inhibitory concentration (IC50) (in the assay on pERK in Hela cells; in assay [1]) were > 100 nM and < 100 nM, respectively.
On the same counts, the results for `C[C@@H](Nc1ncnc2c1cc(N1CCOCC1=O)c1nncn12)c1cccc(C(F)F)c1F` [Example 162] are < 100 nM and < 100 nM.
With `Cc1nc(N[C@H](C)c2cccc(C(F)F)c2F)c2cc(N3CCOCC3=O)c3nncn3c2n1` [Example 163], the 50% inhibitory concentration (IC50) (in the assay with pERK in Hela cells; in assay [1]) was < 100 nM throughout.
Regarding `C[C@@H](Nc1ncnc2c1cc(N1CCN(C)C(=O)C1)c1nncn12)c1cccc(C(F)F)c1F` [Example 164], the IC50 (in the assay on pERK in Hela cells; in assay [1]) was < 100 nM each time.
Consider `C[C@@H](Nc1ncnc2c1cc(N1CCOC1=O)c1nncn12)c1cccc(C(F)F)c1F` [Example 167], for which the IC50 (in the assay with pERK in Hela cells; in assay [1]) was < 100 nM in each case.
Consider `C[C@@H](Nc1ncnc2c1cc(N1C(=O)COC[C@@H]1C)c1nncn12)c1cccc(C(F)F)c1F` [Example 168], for which the 50% inhibitory concentration (IC50) (with pERK in Hela cells; in assay [1]) was < 100 nM throughout.
With `Cc1nc2c(C3(C(F)(F)F)CC3)cc3c(N[C@H](C)c4cccc(C(F)F)c4F)ncnc3n2n1` [Example 169, (R)—N-(1-(3-(difluoromethyl)-2-fluorophenyl)ethyl)-2-methyl-4-(1-(trifluoromethyl)cyclopropyl)-[1,2,4]triazolo[1′,5′:1,6]pyrido[2,3-d]pyrimidin-6-amine], the IC50 (with pERK in Hela cells; in assay [1]) was < 100 nM throughout.
With `Cc1nc2c(C3(C#N)CC3)cc3c(N[C@H](C)c4cccc(C(F)F)c4F)ncnc3n2n1` [Example 170, (R)-1-(6-((1-(3-(difluoromethyl)-2-fluorophenyl)ethyl)amino)-2-methyl-[1,2,4]triazolo[1′,5′:1,6]pyrido[2,3-d]pyrimidin-4-yl)cyclopropane-1-carbonitrile], the half-inhibitory concentration (IC50) (with pERK in Hela cells; in assay [1]) was < 100 nM in each case.
For `Cc1nc(N[C@H](C)c2cccc(C(F)F)c2F)c2cc(C3(C(F)F)CC3)c3nc(C)nn3c2n1` [Example 171], the IC50 (in the assay on pERK in Hela cells; in assay [1]) was < 100 nM in each case.
As to `C[C@@H](Nc1ncnc2c1cc(C1(C(F)(F)F)CC1)c1nncn12)c1cccc(C(F)F)c1F` [Example 172], the concentration for half-maximal inhibition (IC50) (in the assay on pERK in Hela cells; in assay [1]) was < 100 nM in each case.
For `C[C@@H](Nc1ncnc2c1cc(C1(C(F)F)CC1)c1nncn12)c1cccc(C(F)F)c1F` [Example 173], the IC50 (with pERK in Hela cells; in assay [1]) was < 100 nM throughout.
On to `Cc1nc2c(N3CC4(COC4)C3)cc3c(N[C@H](C)c4cccc(C(F)F)c4F)ncnc3n2n1` [Example 174], for which the IC50 (in the assay on pERK in Hela cells; in assay [1]) was < 100 nM in each case.
